Experimental data published in US8802117B2 (Mavi Sud S.r.l., priority 2006, dated 2014).
“Also recorded” adds a separate entry of the source.

Assays:
[1] = tested on: anagen phase of hair cycle; experiment: Action on the anagen phase of hair cycle: lotions A, B, C on the scalp of volunteers for 60 days; type: in vivo, human; settings: topical lotion morning and evening
From the text: Thirty volunteers (15 women and 15 men) suffering from general hair problems: slight thinning out, thinning, continual loss of hair and occasional formation of forms of alopecia restricted to scalp areas, were subjected to the treatment.
All subjects were given, under double-blind conditions, a lotion to be applied morning and evening by light friction, in the amount of 5/6 drops poured on the various areas and deemed sufficient for the treatment of the entire scalp.
The study lasted 60 days.
At day 0, an area of about 1 cm^2 was delimited in the anteroparietal zone of the scalp, from which hair was carefully removed. Removed hair were weighted to verify the mass thereof, and the number of follicles present was counted by a suitable grid.
At day +60, the number and weight of regrown hair were reassessed, again checking the number of follicles present.

[2] = tested on: nerve cell cultures; experiment: Preliminary investigation of cell vitality and toxicity on nerve cell cultures (in vitro cellular models); type: cell-based
[3] = Overall in vitro and in vivo tests of tables 1-9 (fibroblast growth, ATP, collagen, IL-8, hydration, lipids, lipid peroxides, melanin); settings: in association with melatonin, concentrations being equal
Experimental: Fibroblasts of NB1RGB strain were used (2×10^5 cell/ml) and suspended in the α-MEM culture medium placed in 10 Petri dishes (containing 10% foetal bovine serum (FBS), 100 units/ml penicillin and 100 µg/ml streptomycin). while two were left as control. All products were additioned in a 1 μg/ml concentration. All biochemical processes require energy that is accumulated in the form of ATP (adenosyn-triphosphate). […] Out of the 9 culture-containing Petri dishes used, 8 were additioned with 1% μg/ml of the different substances to be tested, whereas one served as control. A continuous and regular collagen synthesis is of fundamental importance for the ECM (extracellular matrix) structure, and therefore for skin elasticity and compactness and wrinkle reduction. Collagen 1 presence was verified with the use of specific antibodies on all ten cell cultures, 8 of which enriched with 1% μl/ml of the various substances directly introduced in the culture medium, and one as control. Collected blood aliquots, pre-supplemented and non-supplemented with the components under study (1 μl/ml) were subdivided into 10 Petri dishes, 8 of which were further supplemented with 10 μl/ml Tumor Necrose Factor a (TNF-α), and one left as control. […] IL-8 amounts were determined photometrically, by specific antibodies. […] During the checking, skin surface lipids and hydration were verified by 3C System. Lipid peroxides were checked with the Pugliesi method (Pugliesi P. (1990) Assessment of Antiaging Products. In: W.C. […] This experiment was meant to assess the protective activity of these compounds if and when taken orally. […] (International Units)/ml penicillin and […] streptomycin) containing 2 mM teophylline. The suspension was subdivided into 7 500-μl portions. To each portion, placed in suitable bars, […] of the various mixtures of active agents were added. Of each mixture 6 samples were prepared.

| Compound | enhancement of melatonin action (synergy) [3] | further results |
| --- | --- | --- |
| COc1ccc2[nH]cc(CCNC(C)=O)c2c1 [melatonin] | – | anagen phase of hair / hair regrowth [1]: causes an increase of the anagen phase of hair, thereby enhancing its regrowth; hair weight (volume, body) [1]: without however exerting an effect on the hair weight itself; toxicity / reduction of cell vitality ([2]; increasing concentrations, 3-mg melatonin alone vs association of melatonin, carotenoid, immunostimulant each 11-mg): cell vitality tends to reduce; also recorded: far more toxic; cytoprotective action towards free radicals of Oxygen (ROS), cell vitality ([2]; suitable concentrations, in vitro model): capable of preserving cell vitality |
| O=C(O)CCCCC1CCSS1 (stereo not drawn) [lipoic acid] | significantly enhance the bioprotective activity of melatonin; also recorded: further enhance the positive effects of melatonin; also recorded: tendentially more active than carotenoids | – |
| CC1=C[C@H](O)CC(C)(C)[C@H]1/C=C/C(C)=C/C=C/C(C)=C/C=C/C=C(C)/C=C/C=C(C)/C=C/C1=C(C)C[C@@H](O)CC1(C)C [lutein] | significantly enhance the bioprotective activity of melatonin; also recorded: further enhance the positive effects of melatonin | – |
| beta-glucan | significantly enhance the bioprotective activity of melatonin; also recorded: tendentially more active than ectoine | – |
| CC1=C(/C=C/C(C)=C/C=C/C(C)=C/C=C/C=C(C)/C=C/C=C(C)/C=C/C2=C(C)CCCC2(C)C)C(C)(C)CCC1 [beta-carotene] | significantly enhance the bioprotective activity of melatonin; also recorded: further enhance the positive effects of melatonin | – |
| CC1=NCC[C@@H](C(=O)O)N1 [ectoine] | significantly enhance the bioprotective activity of melatonin | – |
